First: CCOC(=O)CCNC(=O)NC1CCN(c2ccc(C=NNOC(=O)OCC)cc2)C1=O (configuration not stated)
Second: CCOC(=O)CCc1cn(-c2ccc(Br)cn2)nc1C(C)(C)C
The melting point of the first is higher: 198 to 201 °C for the first, 94 to 95 °C for the second.

Compared with `NC(=O)c1cc(=O)c(-c2ccccc2)co1`, `O=C1c2ccccc2C(=O)C1c1cccc(O)c1` is lower in melting point: 245 to 248 °C for the first, 139 to 141 °C for the second.

First: O=C1NC(=O)c2c1cc1ccc3c(c1c2-c1ccc(Br)cc1)OCO3
Second: O=C(Cn1c(-c2ccc(Br)cc2)nc2cccnc21)Nc1ccccn1
The melting point of the first is higher: 324 to 327 °C for the first, 192 to 195 °C for the second.

First: Cc1cc2c(cc1Cl)C(Br)(c1ccccc1Cl)C(=O)N2 (configuration not stated)
Second: CCOC(=O)c1c(-c2ccc(Cl)c(Cl)c2)csc1N1C(=O)c2ccccc2C1=O
The melting point of the first is lower: 109 to 111 °C for the first, 155 to 156 °C for the second.

First: COc1ccc(-c2nc(N)n3nc(-c4ccco4)nc3n2)cc1
Second: COCCn1c(SC)nc(-c2ccc(F)cc2)c1-c1ccnc(Nc2ccccc2)c1
The melting point of the first is higher: greater than 275 °C for the first, 108 °C for the second.

First: CCc1cc(N)c(I)c(CC)n1
Second: CCCOc1nc2sc(Cl)cc2c(=S)n1CCC
The melting point of the first is lower: 72 to 74 °C for the first, 81 to 83 °C for the second.

Compared with `NC(=O)c1nnn(Cc2ccccc2Cl)c1N`, `CC(=O)C(C(C)=O)=C1NC(=O)N(Cc2ccccc2)C1=O` is higher in melting point: 206 to 208 °C for the first, 211 to 212 °C for the second.

Compared with `COC(=O)[C@H](Cc1ccc(OCCN2CCCCCC2)cc1)NC(=O)[C@@H]1CCCN1S(=O)(=O)c1ccc(C)cc1`, `Cc1cc(-n2ccnc2)c2cccc(OCc3c(Cl)ccc(S(=O)(=O)N4CCC[C@H]4C(=O)NCC4CCNCC4)c3Cl)c2n1` is higher in melting point: 60 to 65 °C for the first, 150 °C for the second.

First: CC(C)(C)OC(=O)NC[C@H]1CN(c2ccc3c(c2)CC(C(C)(C)C)N3)C(=O)O1 (some centres not stated)
Second: O=C(NC[C@H]1CN(c2cc(F)c(N3CCC(n4ncnn4)CC3)c(F)c2)C(=O)O1)C(Cl)Cl
The melting point of the first is lower: 153 to 160 °C for the first, 160 to 162 °C for the second.

Compared with `COc1cc(CC#N)ccc1OCCOc1ccc(F)cc1`, `CCCc1ccc(OCCCc2cc3c(cc2O)CCO3)cc1` is lower in melting point: 126 to 128 °C for the first, 101 to 102 °C for the second.

First: CCCCCCCC[C@H](CC(=O)OC(C)(C)C)C(=O)N1C(=O)OC[C@@H]1C(C)C
Second: CC(=O)SCC(CC(C)C)C(=O)O (configuration not stated)
The melting point of the first is higher: 58 to 59 °C for the first, 42 to 47 °C for the second.

First: COc1ccc(C2CCC(OC(C)=O)CC2NC(=O)c2ccc(OCC3CC3)c(OCC3CC3)c2)cc1OC (configuration not stated)
Second: CCS(=O)(=O)c1cc(OC)c(OC)c(C(=O)NCC2CCCN2CC2CC2)c1 (configuration not stated)
The melting point of the first is lower: 90 to 95 °C for the first, 167 to 170 °C for the second.

First: CC(=O)NCCOC(c1ccc(F)cc1)c1ccc(F)cc1
Second: CS(=O)(=O)c1ccc(-c2cc(O)sc2-c2ccc(F)cc2)cc1
The melting point of the first is higher: 112 to 114 °C for the first, 60 °C for the second.

First: O=C(O)c1cn(-c2ccc(F)cc2F)c2c(F)c(N3Cc4ccccc4C3)c(F)cc2c1=O
Second: O=C(c1ccco1)N1CCc2cc(S(=O)(=O)n3cc(-c4ccccc4)[nH]c3=O)ccc21
The melting point of the first is higher: 264 to 268 °C for the first, 256 to 257 °C for the second.

First: COC(=O)CCc1cc2cc(F)c(Cl)cc2[nH]1
Second: COC(=O)CCc1cc(C)on1
The melting point of the first is higher: 138 to 139 °C for the first, 54 to 55 °C for the second.

First: CN1CCN(CCC#Cc2csc3ncc(C#N)c(Nc4ccc5[nH]ccc5c4)c23)CC1
Second: CCCOc1ccc(S(=O)(=O)N2CCN(CCOC(C)=O)CC2)cc1-c1nc2c(CCCF)cn(CC)c2c(=O)[nH]1
The melting point of the first is higher: 184 to 186 °C for the first, 134 to 135 °C for the second.

Going from `COc1cc(C)cc(OC)c1CCCCCNC(=O)[C@@H](CCCCNC(=O)C=Cc1ccccc1)NC(=O)c1cc2ccccc2n1CC(=O)O` to `CCCCCC[Si]1(CCCCCC)C([Si](C)(C)C)=C(c2ccccc2)C(c2ccccc2)=C1[Si](C)(C)C`, the melting point falls from 172 °C to 81 °C.

First: COC(=O)c1ccc(OCCCl)cc1
Second: COC(=O)C1(c2ccc(OCCN)cc2)CC1
The melting point of the first is lower: 56 to 58 °C for the first, 119 to 122 °C for the second.

First: CCNC(=O)n1nc(Oc2c(F)cc(C(F)(F)F)cc2F)cc1C
Second: O=C(O)c1cc(C(F)(F)F)cc(F)c1F
The melting point of the first is higher: 102 to 104 °C for the first, 94 to 96 °C for the second.

Compared with `COP(=O)(OC)C(O)=Cc1ccc(Cl)cc1`, `COC=C(C(=O)OC)c1ccccc1CSc1ccccc1` is lower in melting point: 89 to 92 °C for the first, 71 °C for the second.

First: CCOc1ccc(N(C)C)cc1-c1ncc(C(=O)O)c(=O)[nH]1
Second: CCOC(=O)c1ccc(NC(=O)C(C)CS)nc1 (configuration not stated)
The melting point of the first is higher: 187 to 196 °C for the first, 58 to 61 °C for the second.

First: S=C(Nc1ccccc1)Nc1ncccc1OCc1ccccc1
Second: O=C(Nc1ccccc1Cl)Oc1ccc2c(c1)CCCN2Cc1ccccc1
The melting point of the first is lower: 107 to 109 °C for the first, 130 °C for the second.

Compared with `NNC(=O)c1cc(Cl)c(O)cc1O`, `NCC(=O)Nc1c(Br)cc(Br)cc1Br` is lower in melting point: 260 °C for the first, 185 to 186 °C for the second.

First: O=C(CCc1ccccc1)Nc1cc(-c2nnc(SCc3cccc(C(F)(F)F)c3)o2)ccn1
Second: CC(N)(C=CP(=O)(O)O)CCCc1ccc(Sc2cccc(OCc3ccccc3)c2)cc1Cl (configuration not stated)
The melting point of the first is lower: 159 to 160 °C for the first, 243 to 245 °C for the second.

First: CCCC(=NOCC)C1=C(O)CC(c2c(C)c3c(c(C)c2Cl)CC(C)(C)C3)CC1=O (configuration not stated)
Second: CCON=C(C(C)=NO)c1ccc(OC(C)c2ccc(Cl)cc2)cc1 (configuration not stated)
The melting point of the first is lower: 93 to 94 °C for the first, 132 to 134 °C for the second.

First: CSC(=NCCSCc1ncccc1Cl)NC#N
Second: CCN(C)c1cccc(NC(=O)COC(C)=O)c1C#N
The melting point of the first is higher: 120 to 121 °C for the first, 57 to 58 °C for the second.

First: O=C(NCc1cccs1)Nc1cc(N2CC(c3ccccc3)CC2=O)ccn1 (configuration not stated)
Second: Cn1cc(-c2ccccc2)c(=O)c(-c2cccc(Br)c2)c1
The melting point of the first is higher: 179 to 180 °C for the first, 172 °C for the second.

First: O=C(O)COc1ccc(CCNS(=O)(=O)c2ccccc2)cc1[N+](=O)[O-]
Second: CCCCN(Cc1ccccc1)C(=O)Nc1cccc(Cl)c1
The melting point of the first is higher: 135 to 136 °C for the first, 69 to 70 °C for the second.

First: COc1ccc([C@]2(C)CNC(=O)O2)cc1OC1CCC1
Second: O=C1NCCc2c(OCC3CO3)cccc21 (configuration not stated)
The melting point of the first is lower: 132 °C for the first, 165 to 166 °C for the second.

Compared with `Cc1nc(N)c2nc(C)n(CC3(O)CCC3)c2c1C`, `Cc1nc(N)c2nc(C)n(CCOCCNC(=O)C(C)C)c2c1C` is lower in melting point: greater than 250 °C for the first, 180 to 182 °C for the second.

First: O=C(OCC1OC(c2ccc(Cl)c(Cc3cc4ccccc4s3)c2)C(OC(=O)c2ccccc2)C(OC(=O)c2ccccc2)C1O)c1ccccc1 (configuration not stated)
Second: OC12CCCCOC1C(OCc1ccccc1)C(OCc1ccccc1)C(OCc1ccccc1)C2OCc1ccccc1 (configuration not stated)
The melting point of the first is higher: 215 to 217 °C for the first, 106 °C for the second.

First: CC1NC(=O)N(c2ccc(F)c(Cl)c2)C1=O (configuration not stated)
Second: Cc1oc(=O)c(Nc2ccc([N+](=O)[O-])cc2)nc1Cl
The melting point of the first is lower: 174 to 176 °C for the first, 230 to 234 °C for the second.

First: Cn1nc2c(oc3cc(Cl)ccc32)c1N
Second: Cn1cc(C(=O)NCc2ccc(Cl)cc2)c(=O)c2cc(CCCO)sc21
The melting point of the first is higher: 210 to 211 °C for the first, 197 to 198 °C for the second.

Compared with `Cc1ccc(Sc2ccnc(Cl)n2)cc1`, `Cc1ccc(-n2cnc(OC(C)C(=O)O)n2)cc1` (configuration not stated) is higher in melting point: 80 to 81 °C for the first, 163 to 165 °C for the second.

First: OCc1cc(-c2nnc3c4ccccc4c(OCc4ccccn4)nn23)no1
Second: O=Cc1c[nH]c2ccc(Nc3ncnc4cc(-c5ccccc5)sc34)cc12
The melting point of the first is lower: 129 to 131 °C for the first, 174 to 175 °C for the second.

First: CCOC(=O)c1c[nH]c(=O)s1
Second: CCOC(=O)[C@@H]1Cc2ccc([N+](=O)[O-])cc2CN1
The melting point of the first is higher: 127 °C for the first, 94 to 95 °C for the second.

First: COC(=O)c1cc(N)c(N2CCCCC2)c(N)c1
Second: COc1cccc(C2=C(CC(C)N3CCCCC3)C(=O)N(C)CCC2)c1 (configuration not stated)
The melting point of the first is higher: 133 to 134 °C for the first, 101 to 103 °C for the second.

First: O=C1N(CC2OC(O)C(O)C(O)C2O)c2ccccc2C12COc1cc3c(cc12)OCCO3 (configuration not stated)
Second: COP(=O)(Cc1ccc(NC(=O)[C@H]2Cc3cc4c(cc3C(=O)[C@H](C)S2)OCO4)cc1)OC
The melting point of the first is lower: 122 to 126 °C for the first, 198 to 199 °C for the second.

First: CC1(C)OCCc2nc(-c3ccccc3)sc21
Second: CN1CCC(=O)C(=C(c2ccccc2)c2ccccc2)C1
The melting point of the first is lower: 65 to 66 °C for the first, 129 to 131 °C for the second.

First: CCCCOCCOc1ccc(-c2cnc(N3CC(C)C(C)C3)c(/C=C(\C)C(=O)O)c2)cc1 (configuration not stated)
Second: CCCCc1nc2c(N)nc3cccnc3c2n1CCNC(=O)c1cccc(O)n1
The melting point of the first is lower: 90 to 92 °C for the first, 258 to 260 °C for the second.

First: CC(C)(C)OC(=O)N1CCC(c2ccc3[nH]c(-c4ccc(S(C)(=O)=O)cc4F)nc3c2)CC1
Second: CS(=O)(=O)c1ccc(C(=O)NCc2ccc3c(c2)C(=O)N(C2CCC(=O)NC2=O)C3=O)nc1 (configuration not stated)
The melting point of the first is lower: 208 to 212 °C for the first, 276 to 278 °C for the second.

First: CC=CCOc1cc(OC)cc(C(=O)OC)c1
Second: COC(=O)c1ccc(OC)c2c(C(F)(F)F)c(OC)ccc12
The melting point of the first is higher: 140 to 141 °C for the first, 120 to 123 °C for the second.

First: Cc1cnc(CNC(=O)c2sc(-n3cnn(Cc4ccc(F)cc4)c3=O)cc2C)cn1
Second: Cn1ccc(C(=O)c2ccc(Cc3ccc(F)cc3)o2)c(O)c1=O
The melting point of the first is higher: 189 to 191 °C for the first, 145 to 147 °C for the second.

First: NC(=NO)c1ccccc1C(F)(F)F
Second: O=C(O)C1=COc2ccccc2O1
The melting point of the first is lower: 74 to 76 °C for the first, 183 to 184 °C for the second.

Compared with `Nc1c(Cl)cc(C(O)CNCCCCCCOCCc2ccccn2)cc1C(F)(F)F` (configuration not stated), `O=C(N[C@H](Cc1cccc(OCC(F)(F)F)c1)[C@@H](O)c1ccc(F)cc1)c1cccc2c1C=CCCC2` (racemic) is higher in melting point: 51.5 to 53 °C for the first, 172 to 173 °C for the second.

Compared with `Cc1[nH]c2ccc(C(=O)NS(=O)(=O)CCCCl)cc2c1Cc1ccc(Cl)cc1Cl`, `Cc1cc(Nc2ccc(Cl)c(Cl)c2)nc(-n2nc(C)cc2C)n1` is higher in melting point: 95.5 to 96.2 °C for the first, 135 to 138 °C for the second.

First: CCOc1nc(=O)n(C(=O)NC(Cl)=C(Cl)Cl)s1
Second: CC(C)C1C(=O)N(COC(=O)c2c(Cl)cccc2Cl)S(=O)(=O)N1C (configuration not stated)
The melting point of the first is higher: 123 °C for the first, 70 to 71.5 °C for the second.

First: N#Cc1ccc(C=Cc2ccc(-c3cc4ccccc4o3)cc2)cc1
Second: Cc1cccc(-c2cc(=O)c(C)c(-c3ccccc3)n2-c2ccccc2F)c1
The melting point of the first is higher: 314 to 315 °C for the first, 211 to 214 °C for the second.

First: Cc1cc2c3c(cccc3c1)C(=O)N(O)C2=O
Second: CCCN(c1cccc2cc(-c3nccs3)[nH]c12)S(=O)(=O)c1cccs1
The melting point of the first is higher: 251 to 253 °C for the first, 130 to 131 °C for the second.

First: CN1CC=C(C2c3ccccc3CCc3ccccc32)CC1
Second: O=S(=O)(Oc1ccc(Oc2ccc(OS(=O)(=O)c3ccccc3)cc2)cc1)c1ccccc1
The melting point of the first is lower: 96 to 98 °C for the first, 129 to 130 °C for the second.

Compared with `COC(=O)C1=C(COCCn2c(C)nc(C)c2C)Nc2[nH]c(N)nc(=O)c2C1c1ccccc1Cl` (configuration not stated), `CSc1ccc(N2CCON(C)C2=O)cc1C(F)(F)F` is lower in melting point: 225 to 227 °C for the first, 60 °C for the second.

Reference: a melting point compilation (Tetko et al.; mined from patent text by program, amines drawn as free bases though some values may be those of a salt)
